Reference: patent publication US20200024278A1, “COMPOSITION COMPRISING ANTIBIOTIC COMPOUND AND AN HETEROCYCLIC COMPOUND AND THEIR USE IN PREVENTING OR TREATING BACTERIAL INFECTIONS” (MUTABILIS, priority 2016, published 2020)

What was measured:
Test in all cases: MIC, broth microdilution (CLSI), substance alone or ATB combined with compound at 4 or 8 μg/mL
ECO 190317 = type: cell-based, E. coli; conditions: ECO 190317; for MIC ATB combined with Example: Example @8 μg/ml
Method in brief: (§1)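 Broth microdilution; ca-MHB; 5·10^5 CFU/mL; 35° C, 16-20 h; compound alone or fixed 4/8 μg/mL with antibiotic series; endpoint = no visible growth.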

ECO UFR39 = type: cell-based, E. coli; conditions: ECO UFR39; for MIC ATB combined with Example: Example @8 μg/ml; for MIC ATB combined with Example compound: compound @8 μg/ml
Method in brief: as §1

SPN 49619 = type: cell-based, S. pneumoniae; conditions: SPN 49619; for MIC ATB combined with Example: Example @8 μg/ml; for MIC ATB combined with Example compound: compound @8 μg/ml
Method in brief: as §1

PAE UFR48 = type: cell-based, P. aeruginosa; conditions: PAE UFR48; for MIC ATB combined with Example: Example @8 μg/ml; for MIC ATB combined with Example compound: compound @8 μg/ml
Method in brief: as §1

PAE 105250 = type: cell-based, P. aeruginosa; conditions: PAE 105250; for MIC ATB combined with Example: Example @8 μg/ml; for MIC ATB combined with Example compound: compound @8 μg/ml
Method in brief: as §1

PAE UFR90 = type: cell-based, P. aeruginosa; conditions: PAE UFR90; for MIC ATB combined with Example: Example @8 μg/ml; for MIC ATB combined with Example compound: compound @8 μg/ml
Method in brief: as §1

SAU 29213 = type: cell-based, S. aureus; conditions: for MIC ATB combined with Example / MIC ATB combined with Example compound: SAU 29213; for MIC ATB combined with Example: Example @8 μg/ml; for MIC ATB combined with Example compound: compound @8 μg/ml
Method in brief: as §1

ECL P99 = type: cell-based, E. cloacae; conditions: ECL P99; for MIC ATB combined with Example: Example @8 μg/ml
Method in brief: as §1

KPN BAA-1898 = type: cell-based, K. pneumoniae; conditions: KPN BAA-1898; for MIC ATB combined with Example: Example @8 μg/ml
Method in brief: as §1

KPN 6299 = type: cell-based, K. pneumoniae; conditions: for MIC ATB combined with Example: Example @8 μg/ml
Method in brief: as §1

KPN UFR42 = type: cell-based, K. pneumoniae; conditions: KPN UFR42; for MIC ATB combined with Example: Example @8 μg/ml; for MIC ATB combined with Example compound: compound @8 μg/ml
Method in brief: as §1

[1] = Escherichia coli, substance alone, read-out: MIC

O=C1N2CC(n3cncn3)=CC(C2)N1OS(=O)(=O)[O-].[Na+] (stereo not shown) [Example 14, sodium [7-oxo-3-(1,2,4-triazol-1-yl)-1,6-diazabicyclo[3.2.1]oct-3-en-6-yl] sulfate]
MIC ATB combined with Example (ECO 190317; ATB ATM): <0.031 µg/mL
MIC ATB combined with Example (ECO 190317; ATB FEP): <0.031 µg/mL
MIC ATB combined with Example (ECO 190317; ATB FOS): <0.125 µg/mL
MIC ATB combined with Example (ECO 190317; ATB MEM): <0.031 µg/mL
MIC ATB combined with Example (ECO 190317; ATB PIP): <0.031 µg/mL
MIC (ECO 190317; [1]): 1 µg/mL
MIC ATB combined with Example compound (ECO 190317; MIC of CIP, compound @8 μg/ml): <0.031 µg/mL
MIC ATB combined with Example (ECO UFR39; ATB ATM): <0.031 µg/mL
MIC ATB combined with Example (ECO UFR39; ATB FEP): <0.031 µg/mL
MIC ATB combined with Example (ECO UFR39; ATB FOS): <0.125 µg/mL
MIC ATB combined with Example (ECO UFR39; ATB MEM): <0.031 µg/mL
MIC ATB combined with Example (ECO UFR39; ATB PIP): <0.031 µg/mL
MIC (ECO UFR39; [1]): 2 µg/mL
MIC ATB combined with Example compound (ECO UFR39; MIC of CIP): <0.031 µg/mL
MIC ATB combined with Example compound (ECO UFR39; MIC of CPO): <0.031 µg/mL
MIC ATB combined with Example (SPN 49619; ATB ATM): <0.031 µg/mL
MIC ATB combined with Example (SPN 49619; ATB FEP): <=0.031 μg/mL
MIC ATB combined with Example (SPN 49619; ATB FOS): 0.5 µg/mL
MIC ATB combined with Example (SPN 49619; ATB MEM): <0.031 µg/mL
MIC ATB combined with Example (SPN 49619; ATB PIP): 0.063 µg/mL
MIC ATB combined with Example compound (SPN 49619; MIC of CIP): 0.031 µg/mL
MIC ATB combined with Example compound (SPN 49619; MIC of CLI): <0.0010 µg/mL
MIC ATB combined with Example compound (SPN 49619; MIC of CPO): <0.031 µg/mL
MIC ATB combined with Example compound (SPN 49619; MIC of DAP): <=0.0020 μg/mL
MIC ATB combined with Example compound (SPN 49619; MIC of ERY): <0.0020 µg/mL
MIC ATB combined with Example compound (SPN 49619; MIC of LZD): <0.0078 µg/mL
MIC ATB combined with Example compound (SPN 49619; MIC of RIF): <=0.00012 μg/mL
MIC ATB combined with Example compound (SPN 49619; MIC of SYN): <=0.0020 μg/mL
MIC ATB combined with Example compound (SPN 49619; MIC of VAN): <0.0039 µg/mL
MIC (SPN 49619; Streptococcus pneumoniae, substance alone, read-out: MIC): 8 µg/mL
MIC ATB combined with Example (PAE UFR48; ATB ATM): 8 µg/mL
MIC ATB combined with Example (PAE UFR48; ATB FEP): 16 µg/mL
MIC ATB combined with Example (PAE UFR48; ATB FOS): 32 µg/mL
MIC ATB combined with Example (PAE UFR48; ATB MEM): 0.25 µg/mL
MIC ATB combined with Example (PAE UFR48; ATB PIP): 16 µg/mL
MIC ATB combined with Example compound (PAE UFR48; MIC of CIP): 4 µg/mL
MIC ATB combined with Example compound (PAE UFR48; MIC of CPO): >32 µg/mL
MIC ATB combined with Example (PAE 105250; ATB ATM): 8 µg/mL
MIC ATB combined with Example (PAE 105250; ATB FEP): 4 µg/mL
MIC ATB combined with Example (PAE 105250; ATB FOS): >128 µg/mL
MIC ATB combined with Example (PAE 105250; ATB MEM): 2 µg/mL
MIC ATB combined with Example (PAE 105250; ATB PIP): 32 µg/mL
MIC ATB combined with Example compound (PAE 105250; MIC of CIP): 0.125 µg/mL
MIC ATB combined with Example compound (PAE 105250; MIC of CPO): 8 µg/mL
MIC ATB combined with Example (PAE UFR90; ATB ATM): 16 µg/mL
MIC ATB combined with Example (PAE UFR90; ATB FEP): 4 µg/mL
MIC ATB combined with Example (PAE UFR90; ATB FOS): 8 µg/mL
MIC ATB combined with Example (PAE UFR90; ATB MEM): 2 µg/mL
MIC ATB combined with Example (PAE UFR90; ATB PIP): >32 µg/mL
MIC ATB combined with Example compound (PAE UFR90; MIC of CIP): 1 µg/mL
MIC ATB combined with Example compound (PAE UFR90; MIC of CPO): 8 µg/mL
MIC ATB combined with Example (SAU 29213; ATB ATM): <0.031 µg/mL
MIC ATB combined with Example (SAU 29213; ATB FEP): <0.031 µg/mL
MIC ATB combined with Example (SAU 29213; ATB FOS): <0.125 µg/mL
MIC ATB combined with Example (SAU 29213; ATB MEM): <0.031 µg/mL
MIC ATB combined with Example (SAU 29213; ATB PIP): <0.031 µg/mL
MIC ATB combined with Example compound (SAU 29213; MIC of CIP): <0.031 µg/mL
MIC ATB combined with Example compound (SAU 29213; MIC of CLI): <0.0010 µg/mL
MIC ATB combined with Example compound (SAU 29213; MIC of CPO): <0.031 µg/mL
MIC ATB combined with Example compound (SAU 29213; MIC of DAP): <0.0020 µg/mL
MIC ATB combined with Example compound (SAU 29213; MIC of ERY): <0.0020 µg/mL
MIC ATB combined with Example compound (SAU 29213; MIC of LZD): <0.0078 µg/mL
MIC ATB combined with Example compound (SAU 29213; MIC of RIF): <0.00012 µg/mL
MIC ATB combined with Example compound (SAU 29213; MIC of SYN): <0.0020 µg/mL
MIC ATB combined with Example compound (SAU 29213; MIC of VAN): <0.0039 µg/mL
MIC (SAU 29213; Staphylococcus aureus, substance alone, SAU 29213 (MSSA 29213), read-out: MIC): 4 µg/mL
MIC ATB combined with Example (ECL P99; ATB ATM): <0.031 µg/mL
MIC ATB combined with Example (ECL P99; ATB FEP): <0.031 µg/mL
MIC ATB combined with Example (ECL P99; ATB FOS): <0.125 µg/mL
MIC ATB combined with Example (ECL P99; ATB MEM): <0.031 µg/mL
MIC ATB combined with Example (ECL P99; ATB PIP): <0.031 µg/mL
MIC (ECL P99; Enterobacter cloacae, substance alone, read-out: MIC): 4 µg/mL
MIC ATB combined with Example compound (ECL P99; MIC of CIP, compound @8 μg/ml): <0.031 µg/mL
MIC ATB combined with Example (KPN BAA-1898; ATB ATM): <0.031 µg/mL
MIC ATB combined with Example (KPN BAA-1898; ATB FEP): <0.031 µg/mL
MIC ATB combined with Example (KPN BAA-1898; ATB FOS): <0.125 µg/mL
MIC ATB combined with Example (KPN BAA-1898; ATB MEM): <0.031 µg/mL
MIC ATB combined with Example (KPN BAA-1898; ATB PIP): <0.031 µg/mL
MIC (KPN BAA-1898; Klebsiella pneumoniae, BAA1898, substance alone, read-out: MIC): 4 µg/mL
MIC ATB combined with Example compound (KPN BAA-1898; MIC of CIP, compound @8 μg/ml): <0.031 µg/mL
MIC ATB combined with Example (KPN 6299; ATB ATM): <0.031 µg/mL
MIC ATB combined with Example (KPN 6299; ATB FEP): <0.031 µg/mL
MIC ATB combined with Example (KPN 6299; ATB FOS): <0.125 µg/mL
MIC ATB combined with Example (KPN 6299; ATB MEM): <0.031 µg/mL
MIC ATB combined with Example (KPN 6299; ATB PIP): <0.031 µg/mL
MIC ATB combined with Example compound (KPN 6299; MIC of CIP, compound @8 μg/ml): <0.031 µg/mL
MIC ATB combined with Example (KPN UFR42; ATB ATM): <0.031 µg/mL
MIC ATB combined with Example (KPN UFR42; ATB FEP): <0.031 µg/mL
MIC ATB combined with Example (KPN UFR42; ATB FOS): <0.125 µg/mL
MIC ATB combined with Example (KPN UFR42; ATB MEM): <0.031 µg/mL
MIC ATB combined with Example (KPN UFR42; ATB PIP): <0.031 µg/mL
MIC (KPN UFR42; Klebsiella pneumoniae, substance alone, read-out: MIC): 8 µg/mL
MIC ATB combined with Example compound (KPN UFR42; MIC of CIP): <0.031 µg/mL
MIC ATB combined with Example compound (KPN UFR42; MIC of CPO): <0.031 µg/mL
